Reference: patent US20210002649A1, “COMPOSITIONS AND METHODS FOR TREATING CANCER” (Beth Israel Deaconess Medical Center, Inc., priority 2018, published 2021)
Where a SMILES comes first, the peptide text is derived from it. The star is where a group is joined. Cbz = O=C(OCc1ccccc1)*

How the values were obtained:
WWP1 = biological target: T1, WWP1 (Mus musculus, UniProt Q8BZZ3); assay: Active CD8 T cell tumor infiltration, syngenic mice model; type: in vivo
T1 construct: from tissue

[1] = system: JAK-STAT, NF-kB, and TNFα pathway; assay: RNA-seq analysis of immune suppressive pathways in Hi-Myc mice; type: in vivo; conditions: I3C treated Hi-Myc mice, versus vehicle (FIGS. 17-20)
[2] = system: PD-L1 protein levels in WWP1 knock-out cells; assay: PD-L1 protein levels in WWP1 knock-out cells (gel image); type: cell-based; conditions: MG132 treatment (FIG. 12)

T1 sequence (Q8BZZ3 whole entry): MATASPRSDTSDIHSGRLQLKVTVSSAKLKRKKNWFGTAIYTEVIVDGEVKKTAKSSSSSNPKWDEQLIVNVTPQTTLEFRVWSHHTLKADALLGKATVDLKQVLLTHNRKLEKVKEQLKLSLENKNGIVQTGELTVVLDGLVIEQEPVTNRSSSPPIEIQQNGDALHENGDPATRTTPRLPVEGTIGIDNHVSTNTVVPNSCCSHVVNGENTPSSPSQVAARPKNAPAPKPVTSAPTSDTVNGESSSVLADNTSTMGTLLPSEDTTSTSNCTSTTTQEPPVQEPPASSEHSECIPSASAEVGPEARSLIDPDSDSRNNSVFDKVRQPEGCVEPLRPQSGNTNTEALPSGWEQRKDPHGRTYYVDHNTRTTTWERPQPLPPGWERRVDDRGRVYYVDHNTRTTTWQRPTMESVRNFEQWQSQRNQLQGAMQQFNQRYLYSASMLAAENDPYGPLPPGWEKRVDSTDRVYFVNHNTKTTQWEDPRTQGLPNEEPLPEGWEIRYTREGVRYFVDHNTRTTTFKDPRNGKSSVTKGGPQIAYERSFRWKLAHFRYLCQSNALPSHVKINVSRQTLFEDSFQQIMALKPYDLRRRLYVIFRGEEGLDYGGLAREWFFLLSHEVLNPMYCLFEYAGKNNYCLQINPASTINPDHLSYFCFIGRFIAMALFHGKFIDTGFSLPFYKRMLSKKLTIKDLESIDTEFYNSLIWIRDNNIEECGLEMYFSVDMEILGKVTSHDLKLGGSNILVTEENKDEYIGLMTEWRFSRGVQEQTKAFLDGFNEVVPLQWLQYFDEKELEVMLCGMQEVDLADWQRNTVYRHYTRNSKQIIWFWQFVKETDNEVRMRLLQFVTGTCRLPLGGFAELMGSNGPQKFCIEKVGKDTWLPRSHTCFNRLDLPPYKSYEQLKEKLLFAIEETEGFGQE

tumor size (WWP1; tumors, after WWP1 inhibition by I3C) | Structure (SMILES) | active CD8 T cell tumor infiltration (WWP1; syngenic mice (FIG. 16)) | immune suppressive pathways (RNA-seq) [1] | PD-L1 protein levels [2]
reducing tumor size | OCc1c[nH]c2ccccc12 [I3C, indole-3-carbinol] | triggers active CD8 T cell tumor infiltration | down-regulation of multiple immune suppressive pathway (JAK-STAT, NF-kB, and TNFα pathway) | –
– | CC(C)C[C@@H](C=O)NC(=O)[C@H](CC(C)C)NC(=O)[C@H](CC(C)C)NC(=O)OCc1ccccc1 [MG132] (Cbz-Leu-Leu-Leu-aldehyde) | – | – | restored PD-L1 protein levels
